Reference: PMC5562778 (Archives of Toxicology, 2017)
Read-outs that look alike come from different tables or passages of the source.

Legend:
Chinese liver microsomes = experiment: Microsomal conversion of estragole by Chinese liver microsomes (NADPH); conditions: for Catalytic efficiency (scaled V max / K m) / Scaled V max: formation from estragole, Chinese; for Scaled V max: scaled with microsomal protein yield 35 mg/(g tissue); for Catalytic efficiency (V max/K m × 1000) / K m / V max: formation of the metabolite from estragole, Chinese liver microsomes; for K m / V max: average ± SEM; for Catalytic efficiency for formation of the metabolite, lower in Chinese than in Caucasian samples / V max for formation of the metabolite, lower in Chinese than in Caucasian samples: in vitro, liver microsomes
Description: (§1) The incubation mixtures contained (final concentrations) 3 mM NADPH and 1 mg/mL microsomal protein in 0.2 M Tris–HCl (pH 7.4). Incubations were performed for 10 min at substrate concentrations ranging from 25 to 1000 μM, after which the reaction was terminated by adding 25 μL ice-cold acetonitrile. Blank incubations were performed in the absence of the cofactor NADPH. All incubations were performed in triplicate. In the supporting materials 2, detailed information can be found (Table S1 can be used to keep track of detailed information).
(§2) Before UPLC analysis, all samples were centrifuged for 5 min at 16,000 g to precipitate microsomal proteins. Supernatant of each sample was analyzed on UPLC using a BEH C18 (1.7 μm, 2.1 × 50 mm) column with a guard column and a diode array detector (Acquity, Waters). […] Table S1 can be used to keep track of detailed information.
(§3) The apparent maximum velocity (V max) and the apparent Michaelis–Menten constant (K m) were determined by fitting the data to this equation using GraphPad Prism version 5.0 (GraphPad software, San Diego California USA).
(§4) The incubation mixtures contained (final concentrations) 3 mM NADPH and 1 mg/ml microsomal protein in 0.2 M Tris-HCl (pH 7.4). […] Incubations were performed for 10 min at substrate concentrations ranging from 25 to 1000 μM, after which the reaction was terminated by adding 25 μl ice-cold acetonitrile. […] Blank incubations were performed in the absence of the cofactor NADPH. All incubations were performed in triplicate.
The flow rate was 0.6 ml/min and the gradient started with 100 % ultrapure water.

[1] = tested on: Caucasian liver microsomes; experiment: Microsomal conversion of estragole by Caucasian liver microsomes (NADPH); format: in vitro ADME, human; conditions: for Catalytic efficiency (scaled V max / K m) / Scaled V max: formation from estragole, Caucasian; for Catalytic efficiency (scaled V max / K m): scaled to liver; for Scaled V max: scaled with microsomal protein yield 35 mg/(g tissue); for Catalytic efficiency (V max/K m × 1000) / K m / V max: formation of the metabolite from estragole, Caucasian liver microsomes; for K m / V max: average ± SEM
Description: as §1
as §2, with “information. […] 3′-Hydroxyanethole was quantified by comparison of the peak areas of the metabolite in the chromatograms obtained at a wavelength of 206 nm to the calibration curve of the synthesized reference compound (Agharahimi and LeBel [1995]; Drinkwater et al. [1976]; Iyer et al. [2003]; Luo et al. [1992]).” for “information.”
as §3, §4
The flow rate was 0.6 ml/min and the gradient started with 100 % ultrapure water. After 1 min, the amount of acetonitrile was increased to 10 % and kept at that level for 1 min, after which the percentage of acetonitrile was increased to 35 % in 2.5 min and then increased to 100 % over 0.5 minute and kept at 100 % acetonitrile for another 1 min, and finally back to the starting conditions.

[2] = PBK prediction, ref Barter et al. [2013], cited from earlier work
[3] = ref Barter et al. [2013], cited from earlier work
Chinese liver S9 = experiment: Oxidation of 1′-hydroxyestragole by Chinese liver S9 (NAD+, GSH trapping); format: in vitro ADME, human
Description: (§5) Mixed gender Chinese or Caucasian liver S9 was incubated with 1′-hydroxyestragole in the presence of NAD^+ and GSH, the latter added to trap the transient 1′-oxoestragole. Formation of the 1′-oxoestragole adducts with GSH forming GS-1′-oxoestragole reflects the formation of 1′-oxoestragole (Punt et al. [2009]). […] The reactions were terminated after 10 min by the addition of 25 μL ice-cold acetonitrile. Blank incubations were performed without cofactor NAD^+. All incubations were performed in triplicate.
(§6) Secondary metabolism of 1′-hydroxyestragole includes glucuronidation, oxidation, and sulfation. The gradient of analysis of the metabolites of 1′-hydroxyestragole can be found in supporting materials 2. Table S1 can be used to track more detailed information.
(§7) Identification of the GS-1′-oxoestragole which reflects the formation of 1′-oxoestragole was done by comparing the UV spectra and retention time of the formed GSH adduct to those of GS-1′-oxoestragole identified as described previously (Punt et al. [2009]). Quantification of the GSH conjugate of 1′-oxoestragole was achieved by comparing the peak area to the calibration curve of GS-1′-oxoestragole at a wavelength of 280 nm prepared as described previously by Punt et al. ([2009], [2016]). Briefly, the calibration curve of GS-1′-oxoestragole was prepared by incubating 40 μM 1′-oxoestragole with a range of GSH concentrations. The reactions were incubated for 4 h after which maximal formation of GS-1′-oxoestragole was previously shown to be reached (Punt et al. [2009]).
(§8) Mixed gender Chinese or Caucasian liver S9 was incubated with 1'-hydroxyestragole in the presence of NAD^+ and GSH, the latter added to trap the transient 1'-oxoestragole. Formation of the 1'-oxoestragole adducts with GSH forming GS-1'-oxoestragole reflects the formation of 1'-oxoestragole (Punt et al. 2009). […] The mixtures were pre-incubated for 1 min at 37 °C, after which the reactions were started by adding the substrate 1'-hydroxyestragole at concentrations ranging from 15 to 1000 μM added from 100 times concentrated stock solutions in DMSO. The reactions were terminated after 10 min by the addition of 25 μl ice-cold acetonitrile. Under these conditions, the formation of the GSH adduct of 1'-oxoestragole was linear with time and cytosolic protein concentration (Punt et al. 2009). Blank incubations were performed without cofactor NAD^+. All incubations were performed in triplicate.
(§9) The gradient for analysis of the metabolites contains a mixture of acetonitrile and 0.1 % TFA in ultrapure water with 0.6 ml/min flow rate.

Caucasian liver S9 = experiment: Oxidation of 1′-hydroxyestragole by Caucasian liver S9 (NAD+, GSH trapping); format: in vitro ADME, human
Description: as §5, §6, §7, §8, §9

[4] = formation from 1′-hydroxyestragole (oxidation), Chinese liver S9
[5] = formation from 1′-hydroxyestragole (oxidation), Chinese liver S9, listed as 1′-oxoestragole
[6] = formation from 1′-hydroxyestragole (oxidation), Caucasian liver S9
[7] = formation from 1′-hydroxyestragole (oxidation), Caucasian liver S9, listed as 1′-oxoestragole

Row | Structure (SMILES) | Catalytic efficiency (scaled V max / K m) (Chinese liver microsomes; scaled to liver) [µL/h/g liver] | Scaled V max (Chinese liver microsomes) [µmol/h/g liver] | Catalytic efficiency (V max/K m × 1000) (Chinese liver microsomes) | K m (Chinese liver microsomes) [µM] | V max (Chinese liver microsomes) | Catalytic efficiency for formation of the metabolite, lower in Chinese than in Caucasian samples (Chinese liver microsomes; conversion of estragole) [fold] | V max for formation of the metabolite, lower in Chinese than in Caucasian samples (Chinese liver microsomes; conversion of estragole) [fold] | Catalytic efficiency (scaled V max / K m) [1] [µL/h/g liver] | Scaled V max [1] [µmol/h/g liver] | Catalytic efficiency (V max/K m × 1000) [1] | K m [1] [µM] | V max [1] | also measured
1 | C=CCc1ccc(O)cc1 [4-Allylphenol] | 2.7 | 0.3 | 1.3 µL/min/mg microsomal or S9 protein | 115 ± 24 | 0.15 ± 0.01 nmol /min/mg microsomal or S9 protein | 1.8 | 5.0 | 5.0 | 1.6 | 2.4 µL/min/mg microsomal or S9 protein | 308 ± 71 | 0.74 ± 0.07 nmol /min/mg microsomal or S9 protein | 
2 | COc1ccc(CC2CO2)cc1 (stereo not drawn) [Estragole-2′,3′-oxide] | 5.5 | 0.9 | 2.6 µL/min/mg microsomal or S9 protein | 161 ± 17 | 0.42 ± 0.01 nmol /min/mg microsomal or S9 protein | 4.9 | 4.4 | 26.6 | 3.9 | 12.7 µL/min/mg microsomal or S9 protein | 146 ± 15 | 1.85 ± 0.06 nmol /min/mg microsomal or S9 protein | V max, lower in Chinese than in Caucasian liver incubations (Chinese liver microsomes; scaled kinetic constants (Table 3), conversion of estragole): fourfold; Scaled catalytic efficiency, lower for Chinese than Caucasian liver microsomes (Chinese liver microsomes; scaled to liver, conversion of estragole): fivefold
3 | Cc1ncc2n1-c1ccc(Cl)cc1C(c1ccccc1F)=NC2 [midazolam] |  |  |  |  |  |  |  |  |  |  |  |  | Predicted clearance, lower in Chinese than in Caucasian subjects ([2]; intravenous): 24%; Predicted clearance, lower in Chinese than in Caucasian subjects ([2]; oral): 17%; Experimentally observed clearance, lower in Chinese individuals than in Caucasian volunteers ([3]; intravenous): 19%; Experimentally observed clearance, lower in Chinese individuals than in Caucasian volunteers ([3]; oral): 62%
4 | CCCCNC(=O)NS(=O)(=O)c1ccc(C)cc1 [tolbutamide] |  |  |  |  |  |  |  |  |  |  |  |  | Predicted clearance, lower in Chinese than in Caucasian subjects ([2]; route not stated): 25%; Experimentally observed clearance, lower in Chinese individuals than in Caucasian volunteers ([3]; route not stated): 2%
5 | C=CC(=O)c1ccc(OC)cc1 [1′-Oxoestragole] |  |  |  |  |  |  |  |  |  |  |  |  | Catalytic efficiency (V max/K m × 1000) (Chinese liver S9; [4]): 4.5 µL/min/mg microsomal or S9 protein; K m (Chinese liver S9; [4]): 403 ± 137 µM; V max (Chinese liver S9; [4]): 1.82 ± 0.28 nmol /min/mg microsomal or S9 protein; K m (Chinese liver S9; [5]): 403 µM; V max (Chinese liver S9; [5]): 1.82 nmol /min/mg microsomal or S9; Catalytic efficiencies for formation of 1′-oxoestragole, Chinese versus Caucasian (Chinese liver S9; in vitro, oxidation of 1′-hydroxyestragole, liver S9): similar; Scaled V max (Chinese liver S9; oxidation of 1′-hydroxyestragole, Chinese, S9 protein yield 143 mg/(g tissue)): 15.6 µmol/h/g liver; Catalytic efficiency (scaled V max / K m) (Chinese liver S9; oxidation of 1′-hydroxyestragole, Chinese, scaled to liver): 38.7 µL/h/g liver; Scaled catalytic efficiencies for formation of 1′-oxoestragole, Chinese versus Caucasian (Chinese liver S9; scaled to liver, oxidation of 1′-hydroxyestragole): similar; Catalytic efficiency (V max/K m × 1000) (Caucasian liver S9; [6]): 5.4 µL/min/mg microsomal or S9 protein; K m (Caucasian liver S9; [6]): 521 ± 265 µM; V max (Caucasian liver S9; [6]): 2.8 ± 0.70 nmol /min/mg microsomal or S9 protein; K m (Caucasian liver S9; [7]): 521 µM; V max (Caucasian liver S9; [7]): 2.8 nmol /min/mg microsomal or S9; Scaled V max (Caucasian liver S9; oxidation of 1′-hydroxyestragole, Caucasian, S9 protein yield 143 mg/(g tissue)): 24.0 µmol/h/g liver; Catalytic efficiency (scaled V max / K m) (Caucasian liver S9; oxidation of 1′-hydroxyestragole, Caucasian, scaled to liver): 46.1 µL/h/g liver
6 | Cc1nnc2n1-c1ccc(Cl)cc1C(c1ccccc1)=NC2 [alprazolam] |  |  |  |  |  |  |  |  |  |  |  |  | Predicted clearance, lower in Chinese than in Caucasian subjects ([2]; intravenous): 21%; Predicted clearance, lower in Chinese than in Caucasian subjects ([2]; oral): 22%; Experimentally observed clearance, lower in Chinese individuals than in Caucasian volunteers ([3]; intravenous): 20%; Experimentally observed clearance, lower in Chinese individuals than in Caucasian volunteers ([3]; oral): 21%
7 | COc1ccc(/C=C/CO)cc1 [3′-Hydroxyanethole] | 1.5 | 0.7 | 0.71 µL/min/mg microsomal or S9 protein | 450 ± 219 | 0.32 ± 0.07 nmol /min/mg microsomal or S9 protein | 3.2 | 3.1 | 4.8 | 2.1 | 2.3 µL/min/mg microsomal or S9 protein | 429 ± 80 | 0.99 ± 0.08 nmol /min/mg microsomal or S9 protein | 
8 | COc1ccc2[nH]c([S+]([O-])Cc3ncc(C)c(OC)c3C)nc2c1 (stereo not drawn) [omeprazole] |  |  |  |  |  |  |  |  |  |  |  |  | Predicted clearance, lower in Chinese than in Caucasian subjects ([2]; route not stated): 51%; Experimentally observed clearance, lower in Chinese individuals than in Caucasian volunteers ([3]; route not stated): 75%
